Molecules are shown by their SMILES. Where only a bound is given, the exact number is not on record here.

The target of this experiment is HSP90 (Homo sapiens, UniProt P07900). Briefly: HSP90 inhibition (HSP90 IC50). In kind it is biochemical.
`Cc1cc(C(N)=O)c(N[C@H](C)C(C)C)cc1C(=O)NC1CC2CCC(C1)N2c1ccc(C(=O)C2CC2)cn1` (stereo partly drawn) [N-{8-[5-(cyclopropylcarbonyl)pyridin-2-yl]-8-azabicyclo[3.2.1]oct-3-endo-yl}-5-{[(1R)-1,2-dimethylpropyl]amino}-2-methylbenzene-1,4-dicarboxamide] returned an IC50 of less than 500 nM.

`CC(C)(C)Nc1cc(C(=O)N[C@H]2C[C@H]3CC[C@@H](C2)N3c2ccc(C(=O)C3CC3)cn2)c(Br)cc1C(N)=O` [2-bromo-N-{8-[5-(cyclopropylcarbonyl)pyridin-2-yl]-8-azabicyclo[3.2.1]oct-3-endo-yl}-5-[(1,1-dimethylethyl)amino]benzene-1,4-dicarboxamide] registered an IC50 of less than 500 nM.

As to `NC(=O)c1ccc(N2C3CCC2CC(NC(=O)c2ccc(C(N)=O)c(N[C@H]4CC[C@H](N)CC4)c2)C3)nc1` (stereo partly drawn) [N4-{8-[5-(aminocarbonyl)pyridin-2-yl]-8-azabicyclo[3.2.1]oct-3-endo-yl}-2-[(trans-4-aminocyclohexyl)amino]benzene-1,4-dicarboxamide], the IC50 was less than 500 nM.

`Cc1cc(C(=O)NC2CC3CCC(C2)N3c2ccc(C(=O)N[C@@H]3CCCN(C(C)C)C3)cn2)c(C)cc1C(N)=O` (stereo partly drawn) [2,5-dimethyl-N-{8-[5-({[(3R)-1-(1-methylethyl)piperidin-3-yl]amino}carbonyl)pyridin-2-yl]-8-azabicyclo[3.2.1]oct-3-endo-yl}benzene-1,4-dicarboxamide] registered an IC50 of less than 500 nM.

Turning to `CC(=O)c1ccc(N2[C@@H]3CC[C@H]2C[C@@H](NC(=O)c2ccc(C(N)=O)c(NC4CC4)c2)C3)nc1` [N4-[8-(5-acetylpyridin-2-yl)-8-azabicyclo[3.2.1]oct-3-endo-yl]-2-(cyclopropylamino)benzene-1,4-dicarboxamide], the IC50 is less than 500 nM.

Compound `NC(=O)c1ccc(C(=O)N[C@H]2C[C@H]3CC[C@@H](C2)N3c2ccc(C(=O)CCN3CCN(c4ccccc4)CC3)cn2)cc1NCC1CC1` [2-[(cyclopropylmethyl)amino]-N4-(8-{5-[3-(4-phenylpiperazin-1-yl)propanoyl]pyridin-2-yl}-8-azabicyclo[3.2.1]oct-3-endo-yl)benzene-1,4-dicarboxamide] came in with an IC50 of 500 to 999 nM.

As for `C[C@H](NC(=O)c1ccc(N2C3CCC2CC(NC(=O)c2ccc(C(N)=O)c(NC4CCC4)c2)C3)nc1)c1ccc(N2CCN(C)CC2)cc1` (stereo partly drawn) [2-(cyclobutylamino)-N4-(8-{5-[({(1S) 1-[4-(4-methylpiperazin-1-yl)phenyl]ethyl}amino)carbonyl]pyridin-2-yl}-8-azabicyclo[3.2.1]oct-3-endo-yl)benzene-1,4-dicarboxamide], the IC50 is less than 500 nM.

As to `COc1cccc(C(=O)N[C@H]2C[C@H]3CC[C@@H](C2)N3c2ccc(C(=O)NCc3c(F)ccc(C)c3Cl)cn2)c1C` [N-[(2-chloro-6-fluoro-3-methylphenyl)methyl]-6-[3-endo-({[2-methyl-3-(methyloxy)phenyl]carbonyl}amino)-8-azabicyclo[3.2.1]oct-8-yl]pyridine-3-carboxamide], the IC50 was in the range of 500 to 999 nM.

Turning to `CCN1CC[C@@H](NC(=O)c2ccc(N3C4CCC3CC(NC(=O)c3cc(C)c(C(N)=O)cc3C)C4)nc2)C1` (stereo partly drawn) [N-{8-[5-({[(3R)-1-ethylpyrrolidin-3-yl]amino}carbonyl)pyridin-2-yl]-8-azabicyclo[3.2.1]oct-3-endo-yl}-2,5-dimethylbenzene-1,4-dicarboxamide], the IC50 was less than 500 nM.

In turn, `Cc1cc(C(=O)NC2CC3CCC(C2)N3c2ccc(C(=O)N[C@H]3CCCN(C)C3)cn2)c(C)cc1C(N)=O` (stereo partly drawn) [2,5-dimethyl-N-{8-[5-({[(3S)-1-methylpiperidin-3-yl]amino}carbonyl)pyridin-2-yl]-8-azabicyclo[3.2.1]oct-3-endo-yl}benzene-1,4-dicarboxamide] gave an IC50 of less than 500 nM.

`NC(=O)c1ccc(C(=O)NC2CC3CCC(C2)N3c2ccc(C(=O)C3CC3)cn2)cc1N[C@H]1CC[C@H](N2CCCCC2)CC1` (stereo partly drawn) [N4-{8-[5-(cyclopropylcarbonyl)pyridin-2-yl]-8-azabicyclo[3.2.1]oct-3-endo-yl}-2-[(trans-4-piperidin-1-ylcyclohexyl)amino]benzene-1,4-dicarboxamide] came in with an IC50 of less than 500 nM.

Compound `CCNC(=O)c1ccc(N2[C@@H]3CC[C@H]2C[C@@H](NC(=O)c2cccc(OC)c2C)C3)nc1` [N-ethyl-6-[3-endo-({[2-methyl-3-(methyloxy)phenyl]carbonyl}amino)-8-azabicyclo[3.2.1]oct-8-yl]pyridine-3-carboxamide] came in with an IC50 of 500 to 999 nM.

As to `COc1cccc(C(=O)N[C@H]2C[C@H]3CC[C@@H](C2)N3c2ccc(C(=O)NCc3ccccc3)cn2)c1I` [6-[3-endo-({[2-iodo-3-(methyloxy)phenyl]carbonyl}amino)-8-azabicyclo[3.2.1]oct-8-yl]-N-(phenylmethyl)pyridine-3-carboxamide], the IC50 was 2000 to 10000 nM.

With `CC(C)CCC(=O)c1ccc(N2[C@@H]3CC[C@H]2C[C@@H](NC(=O)c2ccc(C(N)=O)c(NCC4CC4)c2)C3)nc1` [2-[(cyclopropylmethyl)amino]-N4-{8-[5-(4-methylpentanoyl)pyridin-2-yl]-8-azabicyclo[3.2.1]oct-3-endo-yl}benzene-1,4-dicarboxamide], the IC50 is less than 500 nM.

On to `COCCOc1cc(C(=O)N[C@H]2C[C@H]3CC[C@@H](C2)N3c2ccc(C(=O)C3CC3)cn2)c(C)cc1C(N)=O` [N-{8-[5-(cyclopropylcarbonyl)pyridin-2-yl]-8-azabicyclo[3.2.1]oct-3-endo-yl}-2-methyl-5-{[2-(methyloxy)ethyl]oxy}benzene-1,4-dicarboxamide], for which the IC50 lay within 500 to 999 nM.

For `CC(=O)c1ccc(N2C3CCC2CC(NC(=O)c2ccc(C(N)=O)c(N[C@H]4CCOC4)c2)C3)nc1` (stereo partly drawn) [N4-[8-(5-acetylpyridin-2-yl)-8-azabicyclo[3.2.1]oct-3-endo-yl]-2-[(3S)-tetrahydrofuran-3-ylamino]benzene-1,4-dicarboxamide], the IC50 is less than 500 nM.

`Cc1cc(C(N)=O)c(NC(C)C2CC2)cc1C(=O)N[C@H]1C[C@H]2CC[C@@H](C1)N2c1ccc(C(=O)C2CC2)cn1` (stereo partly drawn) [N-{8-[5-(cyclopropylcarbonyl)pyridin-2-yl]-8-azabicycbo[3.2.1]oct-3-endo-yl}-5-[(l-cyclopropylethyl)amino]-2-methylbenzene-1,4-dicarboxamide] displayed an IC50 of less than 500 nM.

In the case of `Cc1cc(C(N)=O)ccc1C(=O)N[C@H]1C[C@H]2CC[C@@H](C1)N2c1ccc(C(=O)NCc2ccccc2)cn1` [2-methyl-N 1-[8-(5-{[(phenylmethyl)amino]carbonyl}pyridin-2-yl)-8-azabicyclo[3.2.1]oct-3-endo-yl]benzene-1,4-dicarboxamide], the IC50 lay in the range of 500 to 999 nM.

For the compound `COc1cccc(C(=O)N[C@H]2C[C@H]3CC[C@@H](C2)N3c2ccc(C(=O)NCc3cc(OC)c(OC)c(OC)c3)cn2)c1C` [6-[3-endo-({[2-methyl-3-(methyloxy)phenyl]carbonyl}amino)-8-azabicyclo[3.2.1]oct-8-yl]-N-{[3,4,5-tris(methyloxy)phenyl]methyl}pyridine-3-carboxamide], the IC50 lay in the range of 1000 to 2000 nM.

`COc1cccc(C(=O)N[C@H]2C[C@H]3CC[C@@H](C2)N3c2ccc(C(=O)NCc3ccc(F)c(F)c3)cn2)c1C` [N-[(3,4-difluorophenyl)methyl]-6-[3-endo-({(2-methyl-3-(methyloxy)phenyl]carbonyl}amino)-8-azablcyclo[3.2.1]oct-8-yl]pyridine-3-carboxamide] had an IC50 of less than 500 nM.

The record behind these values is patent US8012956B2, “Tropane compounds” (Exelixis, Inc., priority 2007, dated 2011).
